From paper PMC10262914 (Bioorganic chemistry, 2022)
≈ marks a conversion by molar mass, not a printed value. Where “and” joins values, the source holds several entries; their conditions need not be identical. Equal entries are not always repeated. Where two headings read alike, the source gives them in different places.

Key:
[1] = test system: Mycobacterium tuberculosis H37Rv; assay: Alamar blue metabolic readout assay; type: cell-based; conditions: for GAS MIC: M. tuberculosis H37Rv; for MIC: Mycobacterium tuberculosis, H37RV, read-out: GAS MIC
[2] = test system: Mycobacterium tuberculosis H37Rv; assay: Alamar blue metabolic readout assay; type: cell-based; conditions: for MIC: Mycobacterium tuberculosis, H37RV, read-out: 7H12 MIC; for 7H12 MIC: M. tuberculosis H37Rv
[3] = test system: Mycobacterium tuberculosis H37Rv; assay: Low oxygen recovery assay; type: cell-based; conditions: Mycobacterium tuberculosis, H37RV, read-out: LORA MIC
[4] = test system: VERO cells (kidney epithelial cells); assay: Toxicity against VERO cells; type: cell-based
[5] = mouse, microsomes
[6] = microsomes
[7] = human, microsomes
[8] = rat, microsomes
[9] = dog, microsomes
[10] = in vitro; conditions: mouse, microsomes, pH 7.4
[11] = in vitro; conditions: monkey, microsomes, pH 7.4
[12] = in vitro; conditions: human, microsomes, pH 7.4
[13] = in vitro; conditions: rat, microsomes, pH 7.4
[14] = in vitro; conditions: dog, microsomes, pH 7.4
[15] = test system: Mycobacterium tuberculosis H37Rv; assay: Alamar blue assay, MIC stated as range over GAS and 7H12 media; type: cell-based; conditions: for MIC (range over both media): H37Rv
[16] = Chlorocebus sabaeus, Vero, read-out: Vero IC50, toxicity against Vero cells

Structure (SMILES)	GAS MIC ([1]; GAS media)	MIC [1] [µM]	MIC [2] [µM]	MIC [3] [µM]	IC50 [4, 16] [µM]	7H12 MIC ([2]; 7H12 media)	also measured
[2H]c1c(C([2H])([2H])[2H])c([2H])n2c(C(=O)NCc3ccc(F)cc3)c(C)nc2c1[2H] [Compound 29, N-(4-Fluorobenzyl)-2-methyl-6-(methyl-d3)imidazo[1,2-a]pyridine-5,7,8-d3–3-carboxamide]	0.0233 ± 0.0005 µM	0.0233 (≈ 7.07 ng/mL)	0.11 ± 0.0118 (≈ 33.4 ng/mL)	> 10	> 10		
[2H]c1c(C([2H])([2H])[2H])c([2H])n2c(C(=O)NCc3ccc(C(F)(F)F)cc3)c(C)nc2c1[2H] [Compound 30, 2-Methyl-6-(methyl-d3)-N-(4-(trifluoromethyl)benzyl)imidazo [1,2-a]pyridine-5,7,8-d3-3-carboxamide]	0.0091 ± 0.0058 µM	0.0091 (≈ 3.22 ng/mL)	0.0038 ± 0.0013 (≈ 1.34 ng/mL)	> 10	> 50		CLint [5]: 70 ml/min/g protein; CLint [6]: 116 ml/min/g protein; CLint [7]: 26 ml/min/g protein; CLint [8]: 28 mL/min/g protein; CLint [9]: 64 mL/min/g protein; half-life at 2 μM [10]: 20 min; half-life at 2 μM [11]: 12 min; half-life at 2 μM [12]: 53 min; half-life at 2 μM [13]: 50 min; half-life at 2 μM [14]: 22 min
[2H]c1c(C([2H])([2H])[2H])c([2H])n2c(C(=O)NCc3ccc(Cl)cc3)c(C)nc2c1[2H] [Compound 31, N-(4-Chlorobenzyl)-2-methyl-6-(methyl-d3)imidazo[1,2-a]pyridine-5,7,8-d3-3-carboxamide]	0.012 ± 0.0015 µM	0.012 (≈ 3.84 ng/mL)	0.0231 (≈ 7.39 ng/mL)	7.09 (≈ 2270 ng/mL)	> 10	0.0231 ± 0.0071 µM	
[2H]c1c(C([2H])([2H])[2H])c([2H])n2c(C(=O)NCc3ccc(S(F)(F)(F)(F)F)cc3)c(C)nc2c1[2H] [Compound 32, 2-Methyl-6-(methyl-d3)-N-(4-(pentafluoro-λ^6-sulfaneyl)benzyl) imidazo[1,2-a]pyridine-5,7,8-d3-3-carboxamide]	0.0029 µM and 0.0029 ± 0.0005 µM					0.0059 µM and 0.0059 ± 0.0003 µM	MIC (range over both media) [15]: 0.003 to 0.006 µM
[2H]c1c(C([2H])([2H])[2H])c([2H])n2c(C(=O)NCc3ccc(S(C)(=O)=O)cc3)c(C)nc2c1[2H] [Compound 33, 2-Methyl-6-(methyl-d3)-N-(4-(methylsulfonyl)benzyl)imidazo[1,2-a]pyridine-5,7,8-d3-3-carboxamide]		0.174 ± 0.0269 (≈ 63.2 ng/mL)	0.212 ± 0.0282 (≈ 77.1 ng/mL)	> 10	> 10		MIC (range over both media) [15]: 0.174 to 0.212 µM
[2H]c1c(C([2H])([2H])[2H])c([2H])n2c(C(=O)NCc3ccc(OC(F)(F)F)cc3)c(C)nc2c1[2H] [Compound 34, 2-Methyl-6-(methyl-d3)-N-(4-(trifluoromethoxy)benzyl)imidazo [1,2-a]pyridine-5,7,8-d3-3-carboxamide]	0.0022 ± 0.0004 µM	0.0022 (≈ 0.813 ng/mL)	0.0055 (≈ 2.03 ng/mL)	> 5	> 50	0.0055 ± 0.0018 µM	
[2H]c1c(C([2H])([2H])[2H])c([2H])n2c(C(=O)NCc3ccc(OC)cc3)c(C)nc2c1[2H] [Compound 37, N-(4-Methoxybenzyl)-2-methyl-6-(methyl-d3)imidazo[1,2-a] pyridine-5,7,8-d3-3-carboxamide]	0.0245 ± 0.0005 µM	0.0245 (≈ 7.73 ng/mL)	0.0354 (≈ 11.2 ng/mL)	> 10	> 10	0.0354 ± 0.01 µM	
[2H]c1c(C([2H])([2H])[2H])c([2H])n2c(C(=O)NCc3ccc(OCC)cc3)c(C)nc2c1[2H] [Compound 38, N-(4-Ethoxybenzyl)-2-methyl-6-(methyl-d3)imidazo[1,2-a] pyridine-5,7,8-d3-3-carboxamide]	0.0092 ± 0.0013 µM	0.0092 (≈ 3.03 ng/mL)	0.0236 ± 0.0104 (≈ 7.77 ng/mL)				
[2H]c1c(C([2H])([2H])[2H])c([2H])n2c(C(=O)NCc3ccc4c(c3)CCCO4)c(C)nc2c1[2H] [Compound 39, N-(Chroman-6-ylmethyl)-2-methyl-6-(methyl-d3)imidazo[1,2-a] pyridine-5,7,8-d3-3-carboxamide]	0.0225 ± 0.0018 µM	0.0225 (≈ 7.68 ng/mL)	0.0072 (≈ 2.46 ng/mL)			0.0072 ± 0.0004 µM	
[2H]c1c(C([2H])([2H])[2H])c([2H])n2c(C(=O)NCc3ccc4c(c3)OCCO4)c(C)nc2c1[2H] [Compound 40, N-((2,3-Dihydrobenzo[b][1,4]dioxin-6-yl)methyl)-2-methyl-6-(methyl-d3)imidazo[1,2-a]pyridine-5,7,8-d3-3-carboxamide]	0.0101 ± 0.001 µM	0.0101 (≈ 3.47 ng/mL)	0.0051 (≈ 1.75 ng/mL)			0.0051 ± 0.0016 µM	
[2H]c1c(C([2H])([2H])[2H])c([2H])n2c(C(=O)NCc3cccc(Cl)c3)c(C)nc2c1[2H] [Compound 41, N-(3-Chlorobenzyl)-2-methyl-6-(methyl-d3)imidazo[1,2-a] pyridine-5,7,8-d3-3-carboxamide]	0.0035 ± 0.0003 µM	0.0035 (≈ 1.12 ng/mL)	0.0222 (≈ 7.1 ng/mL)	4.52 (≈ 1450 ng/mL)	> 10	0.0222 ± 0.0057 µM	
[2H]c1c(C([2H])([2H])[2H])c([2H])n2c(C(=O)NCc3ccccc3Cl)c(C)nc2c1[2H] [Compound 42, N-(2-Chlorobenzyl)-2-methyl-6-(methyl-d3)imidazo[1,2-a] pyridine-5,7,8-d3-3-carboxamide]	0.0134 ± 0.0022 µM	0.0134 (≈ 4.29 ng/mL)	0.112 (≈ 35.8 ng/mL)	8.49 (≈ 2720 ng/mL)	> 10	0.112 ± 0.0195 µM	
[2H]c1c(C([2H])([2H])[2H])c([2H])n2c(C(=O)NCc3cccc(OC(F)(F)F)c3)c(C)nc2c1[2H] [Compound 43, 2-Methyl-6-(methyl-d3)-N-(3-(trifluoromethoxy)benzyl)imidazo [1,2-a]pyridine-5,7,8-d3-3-carboxamide]		0.0263 ± 0.0036 (≈ 9.71 ng/mL)	0.108 ± 0.0074 (≈ 39.9 ng/mL)	4.92 (≈ 1820 ng/mL)	> 10		fold less active than 30 ([1]; GAS media, MIC ratio versus compound 30 (printed as 4-OCF3 para)): ~ 2.9 fold; fold less active than 30 ([2]; 7H12 media, MIC ratio versus compound 30 (printed as 4-OCF3 para)): > 28 fold
[2H]c1c(C([2H])([2H])[2H])c([2H])n2c(C(=O)NCc3cccc(OC)c3)c(C)nc2c1[2H] [Compound 45, N-(3-Methoxybenzyl)-2-methyl-6-(methyl-d3)imidazo[1,2-a] pyridine-5,7,8-d3-3-carboxamide]	0.0205 ± 0.0004 µM	0.0205 (≈ 6.47 ng/mL)	0.105 (≈ 33.1 ng/mL)			0.105 ± 0.0191 µM	fold less active than 37 ([2]; 7H12 media, MIC ratio versus para isomer 37): 3 fold
[2H]c1c(C([2H])([2H])[2H])c([2H])n2c(C(=O)NCc3cc(F)cc(F)c3)c(C)nc2c1[2H] [Compound 46, N-(3,5-Difluorobenzyl)-2-methyl-6-(methyl-d3)imidazo[1,2-a] pyridine-5,7,8-d3-3-carboxamide]	0.0072 ± 0.0016 µM	0.0072 (≈ 2.31 ng/mL)	0.0124 (≈ 3.98 ng/mL)	6.91 (≈ 2220 ng/mL)	> 10	0.0124 ± 0.0045 µM	MIC (range over both media) [15]: 0.007 to 0.012 µM
[2H]c1c(C([2H])([2H])[2H])c([2H])n2c(C(=O)NCc3cc(Cl)cc(Cl)c3)c(C)nc2c1[2H] [Compound 47, N-(3,5-Dichlorobenzyl)-2-methyl-6-(methyl-d3)imidazo[1,2-a] pyridine-5,7,8-d3-3-carboxamide]	0.0188 ± 0.0028 µM	0.0188 (≈ 6.66 ng/mL)	0.04 (≈ 14.2 ng/mL)	8.87 (≈ 3140 ng/mL)	> 10	0.04 ± 0.013 µM	fold less active than 46 ([15]; versus 46 (3,5-difluoro)): > 2 fold
[2H]c1c(C)cn2c(C(=O)NCc3ccc(C(F)(F)F)cc3)c(C([2H])([2H])[2H])nc2c1[2H] [Compound 52, 6-Methyl-2-(methyl-d3)-N-(4-(trifluoromethyl)benzyl)imidazo [1,2-a]pyridine-7,8-d2-3-carboxamide]		0.0074 ± 0.0028 (≈ 2.61 ng/mL)	0.0039 ± 0.0016 (≈ 1.37 ng/mL)	> 10	> 50		CLint [5]: 87 ml/min/g protein; CLint [6]: 116 ml/min/g protein; CLint [7]: 30 ml/min/g protein; half-life at 2 μM [10]: 16 min; half-life at 2 μM [11]: 12 min; half-life at 2 μM [12]: 46 min
[2H]c1c(C([2H])([2H])[2H])cn2c(C(=O)NCc3ccc(C(F)(F)F)cc3)c(C([2H])([2H])[2H])nc2c1[2H] [Compound 55, 2,6-Bis(methyl-d3)-N-(4-(trifluoromethyl)benzyl)imidazo[1,2-a] pyridine-7,8-d2-3-carboxamide]		0.0096 ± 0.0026 (≈ 3.41 ng/mL)	0.0049 ± 0.0013 (≈ 1.74 ng/mL)	> 10	> 50		CLint [5]: 42 ml/min/g protein; CLint [6]: 98 ml/min/g protein; CLint [7]: 38 ml/min/g protein; half-life at 2 μM [10]: 33 min; half-life at 2 μM [11]: 14 min; half-life at 2 μM [12]: 36 min
Cc1ccc2nc(C)c(C(=O)NCc3ccc(C(F)(F)F)cc3)n2c1 [Compound 57, 2,6-Bis(Methyl-d3)-N-((4-(trifluoromethyl)phenyl)methyl-d2) imidazo[1,2-a]pyridine-7,8-d2-3-carboxamide]							IC50 ([4]; read-out: Vero IC50, toxicity against Vero cells): > 50 µM
CCc1nc2ccc(Cl)cn2c1C(=O)NCc1ccc(N2CCC(c3ccc(OC(F)(F)F)cc3)CC2)cc1 [Compound Q203, Telacebec, reference compound]	0.0009 ± 0.0004 µM	0.0009 (≈ 0.501 ng/mL)	0.0036 (≈ 2.01 ng/mL)	> 5		0.0036 ± 0.0005 µM	
